Drawing on patent US20260028326A1, “COMPOUND BASED ON ISOINDOLINE-SUBSTITUTED GLUTARIMIDE BACKBONE AND USE THEREOF” (GLUETACS THERAPEUTICS (SHANGHAI) CO., LTD., priority 2022, published 2026), this text covers IC50 for 17 molecules.

pIC50: −log10 of the molar value.

Chain of human Cereblon WT GST-tagged protein (Q96SW2 whole entry): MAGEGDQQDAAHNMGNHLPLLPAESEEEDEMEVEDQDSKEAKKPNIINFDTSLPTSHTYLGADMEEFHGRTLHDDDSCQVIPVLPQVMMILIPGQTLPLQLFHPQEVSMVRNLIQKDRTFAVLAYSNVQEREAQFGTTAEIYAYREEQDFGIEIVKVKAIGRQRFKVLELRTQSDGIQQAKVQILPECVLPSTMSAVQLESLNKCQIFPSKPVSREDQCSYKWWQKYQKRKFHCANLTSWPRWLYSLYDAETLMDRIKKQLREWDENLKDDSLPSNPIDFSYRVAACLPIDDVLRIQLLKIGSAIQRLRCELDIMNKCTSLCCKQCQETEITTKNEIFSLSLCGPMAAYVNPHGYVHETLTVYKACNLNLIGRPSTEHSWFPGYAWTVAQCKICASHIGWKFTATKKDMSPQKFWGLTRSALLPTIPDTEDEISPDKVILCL

This assay has as its target human Cereblon WT GST-tagged protein (Homo sapiens (Human), UniProt Q96SW2). Nature of the assay: CRBN-binding affinity, HTRF (CEREBLON BINDING kit). The protocol:
The CEREBLON BINDING kits (specification: 10,000 tests; product number: Catalog #64BDCRBNPEH; CISBIO company) was used to determine the CRBN binding ability of the compounds to be tested through a HTRF method (homogeneous time-resolved fluorescence). The specific methods are as follows: • 1. […] Then, 2.5 μL of human Cereblon WT GST-tagged protein solution was added to each well. Finally, 5 μL of the thoroughly mixed Thalidomide-Re reagent and GST Eu antibody working solution were added to each of the aforementioned wells. […] The blank control wells were sequentially added with 2.5 μL of diluent #9 (1×) solution, 2.5 μL of PROTAC binding buffer, and 5 μL of thoroughly mixed Thalidomide-Re reagent and GST Eu antibody working solution. • 4.
The corresponding CRBN binding inhibition rate was calculated using the following method: […]
In the case of `CC1(C)CCC(CN2C3CCC2CN(c2ccc4c(c2)CN(C2CCC(=O)NC2=O)C4=O)C3)=C(c2ccc(Cl)cc2)C1` (centres unmarked) [GT-05429, 3-(5-(8-((4′-chloro-5,5-dimethyl-3,4,5,6-tetrahydro-[1,1′-biphenyl]-2-yl)methyl)-3,8-diazabicyclo[3.2.1]octan-3-yl)-1-oxoisoindolin-2-yl)piperidine-2,6-dione], the pIC50 (usually the IC50 on a negative log10 scale, so that one unit is a factor of ten) was 5.83.

Molecule `CC1(C)CCC(CN2CC3CC(C2)N3C(=O)c2ccc3c(c2)CN(C2CCC(=O)NC2=O)C3=O)=C(c2ccc(Cl)cc2)C1` (centres unmarked) [GT-05440, 3-(5-(3-((4′-chloro-5,5-dimethyl-3,4,5,6-tetrahydro-[1,1′-biphenyl]-2-yl)methyl)-3,6-diazabicyclo[3.1.1]heptane-6-carbonyl)-1-oxoisoindolin-2-yl)piperidine-2,6-dione] had a negative logarithm of the IC50 (pIC50) of 6.03.

In turn, `CC1(C)CCC(CN2C[C@H]3C[C@@H]2CN3C(=O)c2ccc3c(c2)CN(C2CCC(=O)NC2=O)C3=O)=C(c2ccc(Cl)cc2)C1` (stereo partly drawn) [GT-05441, 3-(5-((1R,4R)-5-((4′-chloro-5,5-dimethyl-3,4,5,6-tetrahydro-[1,1′-biphenyl]-2-yl)methyl)-2,5-diazabicyclo[2.2.1]heptane-2-carbonyl)-1-oxoisoindolin-2-yl)piperidine-2,6-dione] showed a pIC50 of 5.80.

Molecule `CC1(C)CCC(CN2C[C@@H]3C[C@H]2CN3C(=O)c2ccc3c(c2)CN(C2CCC(=O)NC2=O)C3=O)=C(c2ccc(Cl)cc2)C1` (stereo partly drawn) [GT-05442, 3-(5-((1S,4S)-5-((4′-chloro-5,5-dimethyl-3,4,5,6-tetrahydro-[1,1′-biphenyl]-2-yl)methyl)-2,5-diazabicyclo[2.2.1]heptane-2-carbonyl)-1-oxoisoindolin-2-yl)piperidine-2,6-dione] showed a pIC50 of 6.17.

Consider `CC1(C)CCC(CN2CCN(C(=O)c3ccc4c(c3)CN(C3CCC(=O)NC3=O)C4=O)CC2)=C(c2ccc(Cl)cc2)C1` (centres unmarked) [GT-05445, 3-(5-(4-((4′-chloro-5,5-dimethyl-3,4,5,6-tetrahydro-[1,1′-biphenyl]-2-yl)methyl)piperazine-1-carbonyl)-1-oxoisoindolin-2-yl)piperidine-2,6-dione], for which the pIC50 was 5.72.

For `CC1(C)CCC(CN2C3CCC2CN(C(=O)c2ccc4c(c2)CN(C2CCC(=O)NC2=O)C4=O)C3)=C(c2ccc(Cl)cc2)C1` (centres unmarked) [GT-05446, 3-(5-(8-((4′-chloro-5,5-dimethyl-3,4,5,6-tetrahydro-[1,1′-biphenyl]-2-yl)methyl)-3,8-diazabicyclo[3.2.1]octane-3-carbonyl)-1-oxoisoindolin-2-yl)piperidine-2,6-dione], the pIC50 was 5.73.

On to `CC1(C)CCC(CN2CC3CN(C(=O)c4ccc5c(c4)CN(C4CCC(=O)NC4=O)C5=O)CC3C2)=C(c2ccc(F)cc2)C1` (centres unmarked) [GT-05447, 3-(5-(5-((4′-fluoro-5,5-dimethyl-3,4,5,6-tetrahydro-[1,1′-biphenyl]-2-yl)methyl)octahydropyrrolo[3,4-c]pyrrole-2-carbonyl)-1-oxoisoindolin-2-yl)piperidine-2,6-dione], for which the pIC50 was 5.94.

On to `O=C1CCC(N2Cc3cc(C(=O)N4CCN(C(=O)C5=C(c6ccc(F)cc6)CCCC5)CC4)ccc3C2=O)C(=O)N1` (centres unmarked) [GT-05448, 3-(5-(4-(4′-fluoro-3,4,5,6-tetrahydro-[1,1′-biphenyl]-2-carbonyl)piperazine-1-carbonyl)-1-oxoisoindolin-2-yl)piperidine-2,6-dione], for which the pIC50 is 5.86.

Molecule `CC1(C)CCC(CN2CC3CCC(C2)N3C(=O)c2ccc3c(c2)CN(C2CCC(=O)NC2=O)C3=O)=C(c2ccc(F)cc2)C1` (centres unmarked) [GT-05451, 3-(5-(3-((4′-fluoro-5,5-dimethyl-3,4,5,6-tetrahydro-[1,1′-biphenyl]-2-yl)methyl)-3,8-diazabicyclo[3.2.1]octane-8-carbonyl)-1-oxoisoindolin-2-yl)piperidine-2,6-dione] gave a pIC50 of 5.94.

In the case of `CC1(C)CCC(CN2CC3CC2CN3C(=O)c2ccc3c(c2)CN(C2CCC(=O)NC2=O)C3=O)=C(c2ccc(F)cc2)C1` (centres unmarked) [GT-05452, 3-(5-(5-((4′-fluoro-5,5-dimethyl-3,4,5,6-tetrahydro-[1,1′-biphenyl]-2-yl)methyl)-2,5-diazabicyclo[2.2.1]heptane-2-carbonyl)-1-oxoisoindolin-2-yl)piperidine-2,6-dione], the pIC50 was 6.36.

In turn, `CC1(C)CCC(CN2CCCN(C(=O)c3ccc4c(c3)CN(C3CCC(=O)NC3=O)C4=O)CC2)=C(c2ccc(Cl)cc2)C1` (centres unmarked) [GT-05453, 3-(5-(4-((4′-chloro-5,5-dimethyl-3,4,5,6-tetrahydro-[1,1′-biphenyl]-2-yl)methyl)-1,4-diazepane-1-carbonyl)-1-oxoisoindolin-2-yl)piperidine-2,6-dione] had a pIC50 of 5.91.

`CC1(C)CCC(CN2C3CC2CN(C(=O)c2ccc4c(c2)CN(C2CCC(=O)NC2=O)C4=O)C3)=C(c2ccc(Cl)cc2)C1` (centres unmarked) [GT-05457, 3-(5-(6-((4′-chloro-5,5-dimethyl-3,4,5,6-tetrahydro-[1,1′-biphenyl]-2-yl)methyl)-3,6-diazabicyclo[3.1.1]heptane-3-carbonyl)-1-oxoisoindolin-2-yl)piperidine-2,6-dione]: the pIC50 is 5.90.

`CC1(C)CCC(CN2CC3CCC(C2)N3C(=O)c2ccc3c(c2)CN(C2CCC(=O)NC2=O)C3=O)=C(c2ccc(Cl)cc2)C1` (centres unmarked) [GT-05458, 3-(5-(3-((4′-chloro-5,5-dimethyl-3,4,5,6-tetrahydro-[1,1′-biphenyl]-2-yl)methyl)-3,8-diazabicyclo[3.2.1]octane-8-carbonyl)-1-oxoisoindolin-2-yl)piperidine-2,6-dione] had a pIC50 of 5.85.

In the case of `CC1(C)CCC(CN2CC3CCC(C2)N3Cc2ccc3c(c2)C(=O)N(C2CCC(=O)NC2=O)C3)=C(c2ccc(Cl)cc2)C1` (centres unmarked) [GT-05459, 3-(6-((3-((4′-chloro-5,5-dimethyl-3,4,5,6-tetrahydro-[1,1′-biphenyl]-2-yl)methyl)-3,8-diazabicyclo[3.2.1]octan-8-yl)methyl)-1-oxoisoindolin-2-yl)piperidine-2,6-dione], the pIC50 was 5.95.

`CC1(C)CCC(CN2CC3CCC2CN3Cc2cc3c(cc2F)C(=O)N(C2CCC(=O)NC2=O)C3)=C(c2ccc(Cl)cc2)C1` (centres unmarked) [GT-05460, 3-(5-((5-((4′-chloro-5,5-dimethyl-3,4,5,6-tetrahydro-[1,1′-biphenyl]-2-yl)methyl)-2,5-diazabicyclo[2.2.2]octan-2-yl)methyl)-6-fluoro-1-oxoisoindolin-2-yl)piperidine-2,6-dione] had a pIC50 of 5.79.

Molecule `CC1(C)CCC(CN2CC3CCC2CN3Cc2cccc3c2CN(C2CCC(=O)NC2=O)C3=O)=C(c2ccc(Cl)cc2)C1` (centres unmarked) [GT-05461, 3-(4-((5-((4′-chloro-5,5-dimethyl-3,4,5,6-tetrahydro-[1,1′-biphenyl]-2-yl)methyl)-2,5-diazabicyclo[2.2.2]octan-2-yl)methyl)-1-oxoisoindolin-2-yl)piperidine-2,6-dione] showed a pIC50 of 5.80.

The molecule `CC1(C)CCC(CN2CC3CCC2CN3Cc2cccc3c2C(=O)N(C2CCC(=O)NC2=O)C3)=C(c2ccc(Cl)cc2)C1` (centres unmarked) [GT-05462, 3-(7-((5-((4′-chloro-5,5-dimethyl-3,4,5,6-tetrahydro-[1,1′-biphenyl]-2-yl)methyl)-2,5-diazabicyclo[2.2.2]octan-2-yl)methyl)-1-oxoisoindolin-2-yl)piperidine-2,6-dione] showed a pIC50 of 5.72.
